This note sets out measurements from patent US20080004272A1, “Compositions and methods for modulating gated ion channels” (PainCeptor Pharma Corporation, priority 2006, published 2008).

Like-named read-outs stand apart in the source and are kept apart here.

As usually defined, the IC50 is the midpoint of a concentration-inhibition curve.

The target in the test is T1, ASIC1a (Homo sapiens, UniProt P78348).
T1 sequence (P78348 1-528): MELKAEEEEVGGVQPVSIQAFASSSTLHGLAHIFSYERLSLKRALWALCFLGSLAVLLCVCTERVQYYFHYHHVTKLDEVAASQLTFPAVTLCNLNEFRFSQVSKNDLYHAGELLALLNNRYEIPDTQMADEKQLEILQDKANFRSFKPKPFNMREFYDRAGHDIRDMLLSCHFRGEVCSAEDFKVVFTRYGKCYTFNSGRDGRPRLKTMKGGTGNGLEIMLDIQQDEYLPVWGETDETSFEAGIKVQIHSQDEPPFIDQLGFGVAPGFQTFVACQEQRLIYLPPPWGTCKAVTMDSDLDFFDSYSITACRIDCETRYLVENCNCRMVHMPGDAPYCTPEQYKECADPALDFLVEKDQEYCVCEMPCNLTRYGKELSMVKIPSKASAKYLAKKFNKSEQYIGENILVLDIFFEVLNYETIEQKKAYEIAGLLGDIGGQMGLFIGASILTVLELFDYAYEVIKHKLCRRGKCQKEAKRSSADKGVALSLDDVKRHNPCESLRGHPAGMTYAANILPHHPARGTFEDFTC
Kind of test: Whole cell patch clamp in HEK293 cells transfected with hASIC1a. It is filed as cell-based. Further details: expressed in transfected cells; host or cells: Xenopus laevis oocytes (nuclear microinjection of expression vector such as pcDNA3). Here is the method:
Another example of an in vitro assessment method consists of using mammalian heterologous expression systems, which are known to the skilled in the art, and include a variety of mammalian cell lines such as COS, HEK, e.g., HEK293 and/or CHO, cells. Cell lines are transfected with gated ion channel(s) and used to perform electrophysiology as follows:
All experiments are performed at room temperature (20-25° C.) in voltage clamp using conventional whole cell patch clamp methods (Neher, E., et al. (1978) Pfluegers Arch 375:219-228).
The amplifier used is the EPC-9 (HEKA-electronics, Lambrect, Germany) run by a Macintosh G3 computer via an ITC-16 interface. Experimental conditions are set with the Pulse-software accompanying the amplifier. […]
Coverslips with the cells are transferred to a 15 μl experimental chamber mounted on the stage of an inverted microscope (IMT-2, Olympus) supplied with Nomarski optics. […] The cells are held at a holding voltage of −60 mV and at the start of each experiment the current is continuously measured for 45 s to ensure a stable baseline. […] Current amplitudes are measured at the peak of the responses, and effect of the compounds is calculated as the amplitude at compound equilibrium divided by the amplitude of the current evoked by the pulse just before the compound is included. […]

With `CN1CCc2c(-c3ccccc3)cc(C#N)c(N)c2C1` [Compound 203, 8-Amino-2-methyl-5-phenyl-1,2,3,4-tetrahydro-isoquinoline-7-carbonitrile], the IC50 turned out to be 7.5 µM.

Consider `COc1ccc(F)cc1-c1cc(C#N)c(N)c2c1CCN(C)C2` [Compound 206, 8-Amino-5-(5-fluoro-2-methoxy-phenyl)-2-methyl-1,2,3,4-tetrahydro-isoquinoline-7-carbonitrile], for which the IC50 (HEK293 cells, whole cell patch clamp, six point dose-response, read-out: IC50, inhibition of acid-induced hASIC1a activity) amounted to 28 µM.
